Values joined by “and” are separate entries in the source; they are usually repeats but may differ in a detail not shown here. Equal entries are not always repeated. “Also recorded” adds a separate entry of the source.
Key:
fundic H+,K+-ATPase = molecular target: T1, fundic H+,K+-ATPase (Rattus norvegicus, UniProt P09626); assay: Intracellular pH recovery in isolated rat fundic (F1) glands; format: cell-based; settings: for effect on fundic (F1) acid secretion (in words): histamine 100 μM
T1 construct: Glands adjacent to the esophageal junction were hand dissected; from tissue; host or cells: hand-dissected fundic glands of Sprague Dawley rat stomach, next to the esophageal junction
T1 sequence (P09626 whole entry): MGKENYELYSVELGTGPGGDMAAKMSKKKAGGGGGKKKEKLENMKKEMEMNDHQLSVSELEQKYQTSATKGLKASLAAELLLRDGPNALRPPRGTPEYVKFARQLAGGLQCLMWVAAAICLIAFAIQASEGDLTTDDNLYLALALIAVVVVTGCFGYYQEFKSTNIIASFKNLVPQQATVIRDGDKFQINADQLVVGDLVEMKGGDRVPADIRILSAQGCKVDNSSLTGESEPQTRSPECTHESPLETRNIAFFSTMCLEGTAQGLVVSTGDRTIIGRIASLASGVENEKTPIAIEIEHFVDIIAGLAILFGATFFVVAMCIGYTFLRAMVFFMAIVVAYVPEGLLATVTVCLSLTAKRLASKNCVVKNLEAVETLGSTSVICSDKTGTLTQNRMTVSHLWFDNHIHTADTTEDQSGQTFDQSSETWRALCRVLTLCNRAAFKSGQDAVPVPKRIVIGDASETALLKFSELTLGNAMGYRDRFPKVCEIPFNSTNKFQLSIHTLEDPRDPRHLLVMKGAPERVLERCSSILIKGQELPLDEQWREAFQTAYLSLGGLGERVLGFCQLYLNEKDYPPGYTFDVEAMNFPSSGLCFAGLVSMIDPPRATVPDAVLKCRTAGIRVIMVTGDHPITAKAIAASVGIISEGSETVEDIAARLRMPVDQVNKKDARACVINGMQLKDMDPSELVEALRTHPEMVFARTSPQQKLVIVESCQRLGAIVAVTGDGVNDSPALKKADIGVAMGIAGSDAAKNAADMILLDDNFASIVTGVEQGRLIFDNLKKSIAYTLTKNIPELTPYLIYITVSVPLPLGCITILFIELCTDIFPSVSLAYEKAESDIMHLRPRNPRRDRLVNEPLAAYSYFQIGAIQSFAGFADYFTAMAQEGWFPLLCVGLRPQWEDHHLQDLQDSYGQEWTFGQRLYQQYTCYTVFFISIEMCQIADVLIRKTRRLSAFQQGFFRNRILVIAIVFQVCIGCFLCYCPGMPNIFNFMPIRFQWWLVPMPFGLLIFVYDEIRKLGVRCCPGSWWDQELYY
T1 sequence (P18598 whole entry partner): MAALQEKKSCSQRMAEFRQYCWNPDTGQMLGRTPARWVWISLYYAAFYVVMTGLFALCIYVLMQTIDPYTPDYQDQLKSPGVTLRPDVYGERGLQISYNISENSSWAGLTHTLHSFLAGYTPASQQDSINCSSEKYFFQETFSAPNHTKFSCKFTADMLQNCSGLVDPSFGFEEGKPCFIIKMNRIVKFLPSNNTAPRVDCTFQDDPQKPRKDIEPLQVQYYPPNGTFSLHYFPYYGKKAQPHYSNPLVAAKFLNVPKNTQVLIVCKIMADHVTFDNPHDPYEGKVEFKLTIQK
Protocol: Male Sprague Dawley rats weighing 200-300 g were housed in climate and humidity controlled, light cycled rooms and fed standard chow with free access to water. Prior to experiments, animals were fasted while allowing free access to water for 18-24 hours to reduce basal acid secretion. Following isoflurane anesthesia the animals were sacrificed, an abdominal incision was made exposing the stomach. After isolating the esophagus and duodenal junctures a total gastrectomy was performed with 1-2 cm of esophagus remaining attached to the gastrectomy. We included the esophageal juncture to have a common landmark for all fundic isolations. While holding the esophagus with forceps approximately 3 mm of fundus was removed with 5 mm of the intact esophagus.
The removed fundic tissue was placed in ice cold HEPES-buffered Ringer-solution (pH adjusted to 7.4 at 4° C.) and transferred to the stage of a dissection microscope. The fundic glands were visualized under the microscope at 50× magnification. Glands adjacent to the esophageal junction were hand dissected. […]
Using the same protocol that we developed for isolated corpus gland perfusion^20a, 21a individual fundic glands were loaded with a […] of the pH sensitive dye (BCECF, (2′7-bis(2-carbocyethal)-5-(and 6)-carboxyflurorescein-acetomethylester; Molecular Probes, OR USA)) for 15 minutes. […] Acid extrusion was monitored in the absence of bicarbonate. […] Intracellular pH recovery rates (H^+, K^+-ATPase activity) were measured in Na^+ free HEPES solutions containing: 1) 100 μM histamine 2) 100 μM pentagastrin. […]
The recovery rates are expressed as the ΔpHi/min, and were calculated over the pH range of 6.5-6.9.
Activation of acid secretion via histamine, acetylcholine or pentagastrin was induced by preincubation of the glands for 15 min before the experiment combined with BCECF (100 μM) loading. All data are summarized as mean±S.E. Significance was determined using the one-way ANOVA test with p<0.05 considered to be statistically significant. […]

H+,K+-ATPase [1] = molecular target: T2, H+,K+-ATPase (Rattus norvegicus, UniProt P09626); assay: Intracellular pH recovery in rat corpus glands (fundus/corpus comparison); format: cell-based; settings: corpus glands
T2 construct: Individual glands were isolated using a hand-dissection technique as described previously; from tissue; host or cells: hand-dissected rat gastric glands (corpus and antrum), parietal cells
T2 sequence (P09626 whole entry): as the sequence (P09626 whole entry) above
T2 sequence (P18598 whole entry partner): as the sequence (P18598 whole entry partner) above
Protocol: Molecular Probes, OR USA)) for 15 minutes. […] Measurements were performed in the epifluorescence mode with 60×/0.80 and 40×/0.90 objectives. […] Data points were acquired every 15 s. […] Acid extrusion was monitored in the absence of bicarbonate. […] All data are summarized as mean±S.E. Significance was determined using the one-way ANOVA test with p<0.05 considered to be statistically significant. All chemicals used were obtained from Sigma and Molecular Probes.

H+,K+-ATPase [2] = molecular target: T2, H+,K+-ATPase; assay: Intracellular pH recovery (BCECF, NH4Cl prepulse) in isolated rat gastric glands; format: cell-based
Description: Following removal of the stomach, the stomach was opened longitudinally and the corpus and antrum isolated and sliced into 0.5 cm square sections, and washed with cold Ringer solution to remove residual food particles. The tissues were transferred to the stage of a dissecting microscope. Individual glands were isolated using a hand-dissection technique as described previously^36. Following isolation, individual isolated glands were allowed to adhere to cover slips that had been pre-coated with Cell-Tak (Collaborative Research, Bedford, Mass.) and were transferred to the stage of an inverted microscope.
Isolated gastric glands were incubated in a HEPES-buffered Ringer's solution containing either 10 μmol of the pH-sensitive dye BCECF-AM (2′,7′)-bis-(2-carboxyethyl)-5-(and -6)-carboxy-fluorescin, aceto-methyl ester (Molecular Probes, Eugene, Oreg.) for 10 minutes as described previously^37-39. […] A minimum of 8 cells or regions was selected per gland.
Proton extrusion by individual parietal cells was monitored by observing recovery of pHi after acid loading the cells with Na^+ free HEPES solution containing 20 mM NH4C1.
The recovery rates are expressed as the ΔpH/min, and were calculated over the pH range of 6.5-6.8.

[3] = tested on: gastric acid secretion in freshly isolated rat whole stomach; assay: Whole stomach pH measurements, ex vivo rat whole stomach preparation
Protocol: Before the experiments animals were fasted for 24 h to reduce basal acid secretion to a consistent minimum. Animals were killed with an overdose of isoflurane and an abdominal incision was made. The stomach was ligated at the duodenal and esophageal junction and excised. Then 1 ml of non buffered, isotonic saline (140 mM) was infused into the lumen of the stomach. […] The stomachs were then placed in either oxygenated HEPES-buffered Ringer solution or in the same solution containing 100 μM histamine alone or additionally 300 μM ZnCl2 (pH 7.4) and maintained at 37° C. After 1 hour the stomach contents were aspirated and the pH was recorded.

[4] = tested on: histamine induced acid secretion; assay: Oral zinc supplementation in rats, histamine induced proton extrusion of isolated glands; format: in vivo, rat
Description: Following dye-loading the chamber was flushed with a HEPES solution to remove all non-de-esterified dye. The perfusion chamber was mounted on the stage of an inverted microscope (Olympus IX50), which was used in the epifluorescence mode with a 40× objective. BCECF was successively excited at 440 nm and 490 nm from a monochromator light source, and the resultant fluorescent signal was monitored at 535 nm using an intensified charge-coupled device camera. Individual regions of interest were outlined and simultaneously monitored every 15 sec. during the course of the experiment. A minimum of 8 cells or regions was selected per gland.
Proton extrusion by individual parietal cells was monitored by observing recovery of pHi after acid loading the cells with Na^+ free HEPES solution containing 20 mM NH4C1. Parietal cells were subsequently superfused with Na^+ free HEPES, which abolished all Na^+/H^+ Exchanger (NHE) activity, trapping H^+ within the cytosol and initiating an immediate drop in pHi. Under these conditions, the only potential H^+ extrusion pathway is via the H^+,K^+-ATPase activation.
The intensity ratio data (490/440) were converted to pH values using the high K^+/nigericin calibration technique^40. Intracellular pH recovery rates were calculated from the same initial starting pH to eliminate the potential variation in the individual intracellular buffering power of the cells under the different experimental conditions. All data including the individual images for all wavelengths were recorded to the hard disk which allowed us to return to the individual images after the experiment for further analysis. The recovery rates are expressed as the ΔpH/min, and were calculated over the pH range of 6.5-6.8. All chemicals were obtained from Sigma and Molecular Probes. All data were summarized as means±SE and were analysed by grouping measurements at baseline values.

H+,K+-ATPase [5] = molecular target: H+,K+-ATPase (Homo sapiens, UniProt P20648); settings: human gastric glands
H+,K+-ATPase (Homo sapiens, UniProt P20648), sequence (P20648 whole entry): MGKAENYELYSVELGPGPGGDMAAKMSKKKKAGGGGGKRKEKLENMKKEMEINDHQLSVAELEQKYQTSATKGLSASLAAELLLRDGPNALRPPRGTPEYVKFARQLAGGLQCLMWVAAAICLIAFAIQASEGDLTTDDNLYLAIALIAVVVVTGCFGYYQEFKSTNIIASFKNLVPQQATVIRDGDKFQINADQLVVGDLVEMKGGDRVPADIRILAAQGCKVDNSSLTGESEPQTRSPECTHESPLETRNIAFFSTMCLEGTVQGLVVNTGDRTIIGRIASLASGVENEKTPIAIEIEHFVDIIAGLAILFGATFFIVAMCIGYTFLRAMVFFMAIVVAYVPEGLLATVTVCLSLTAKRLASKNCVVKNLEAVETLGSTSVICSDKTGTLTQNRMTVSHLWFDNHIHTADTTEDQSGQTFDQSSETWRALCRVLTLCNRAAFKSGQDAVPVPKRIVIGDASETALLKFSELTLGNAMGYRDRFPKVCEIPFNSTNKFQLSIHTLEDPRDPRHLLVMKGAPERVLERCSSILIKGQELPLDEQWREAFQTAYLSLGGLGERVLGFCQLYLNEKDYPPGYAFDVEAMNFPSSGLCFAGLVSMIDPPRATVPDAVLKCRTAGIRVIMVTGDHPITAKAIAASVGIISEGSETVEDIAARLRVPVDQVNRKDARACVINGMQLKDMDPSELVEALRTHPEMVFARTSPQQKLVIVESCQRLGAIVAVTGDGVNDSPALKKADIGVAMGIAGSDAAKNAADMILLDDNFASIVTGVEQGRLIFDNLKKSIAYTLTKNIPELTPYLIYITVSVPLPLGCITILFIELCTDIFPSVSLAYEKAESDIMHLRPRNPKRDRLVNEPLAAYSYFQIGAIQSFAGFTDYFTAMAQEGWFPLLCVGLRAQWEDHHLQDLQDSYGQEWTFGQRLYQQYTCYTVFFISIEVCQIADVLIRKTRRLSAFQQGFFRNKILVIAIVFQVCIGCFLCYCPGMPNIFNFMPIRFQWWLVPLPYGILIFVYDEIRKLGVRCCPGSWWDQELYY
H+,K+-ATPase (Homo sapiens, UniProt P20648), sequence (P51164 whole entry partner): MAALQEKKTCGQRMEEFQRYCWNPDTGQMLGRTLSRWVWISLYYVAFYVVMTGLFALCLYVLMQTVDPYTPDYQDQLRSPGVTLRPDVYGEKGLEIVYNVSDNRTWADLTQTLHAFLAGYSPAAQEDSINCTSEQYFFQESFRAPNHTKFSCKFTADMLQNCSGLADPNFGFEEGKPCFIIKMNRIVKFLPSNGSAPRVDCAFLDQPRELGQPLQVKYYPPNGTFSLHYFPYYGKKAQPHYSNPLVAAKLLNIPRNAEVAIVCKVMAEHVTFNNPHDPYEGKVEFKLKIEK
Protocol: The human tissue was transferred from the OR in a HEPES-buffered Ringer solution. The tissue was stored on ice and immediately the isolated glands were dissected as described above.
Isolated gastric glands were incubated in a HEPES-buffered Ringer's solution containing either 10 μmol of the pH-sensitive dye BCECF-AM (2′,7′)-bis-(2-carboxyethyl)-5-(and -6)-carboxy-fluorescin, aceto-methyl ester (Molecular Probes, Eugene, Oreg.) for 10 minutes as described previously^37-39. Following dye-loading the chamber was flushed with a HEPES solution to remove all non-de-esterified dye. The perfusion chamber was mounted on the stage of an inverted microscope (Olympus IX50), which was used in the epifluorescence mode with a 40× objective. BCECF was successively excited at 440 nm and 490 nm from a monochromator light source, and the resultant fluorescent signal was monitored at 535 nm using an intensified charge-coupled device camera. Individual regions of interest were outlined and simultaneously monitored every 15 sec. during the course of the experiment. A minimum of 8 cells or regions was selected per gland.
Proton extrusion by individual parietal cells was monitored by observing recovery of pHi after acid loading the cells with Na^+ free HEPES solution containing 20 mM NH4C1. Parietal cells were subsequently superfused with Na^+ free HEPES, which abolished all Na^+/H^+ Exchanger (NHE) activity, trapping H^+ within the cytosol and initiating an immediate drop in pHi. […]
The intensity ratio data (490/440) were converted to pH values using the high K^+/nigericin calibration technique^40. Intracellular pH recovery rates were calculated from the same initial starting pH to eliminate the potential variation in the individual intracellular buffering power of the cells under the different experimental conditions. […] The recovery rates are expressed as the ΔpH/min, and were calculated over the pH range of 6.5-6.8. […] All data were summarized as means±SE and were analysed by grouping measurements at baseline values.

SMILES	effect on fundic (F1) acid secretion (in words) (fundic H+,K+-ATPase)	effect on corpus acid secretion (in words) (H+,K+-ATPase [1])	inhibition of proton extrusion (H+,K+-ATPase [2]; 300 μM ZnCl2, compared to the histamine (100 μM) induced rate)	onset of inhibition of histamine induced acid secretion (H+,K+-ATPase [2]; ZnCl2 300 μM added to superfusion bath during alkalinization, histamine 100 μM)	reversibility of inhibition after removal of ZnCl2 (H+,K+-ATPase [2]; ZnCl2 300 μM, histamine 100 μM)	effect on histamine induced acid secretion (in words) (H+,K+-ATPase [2]; rat gastric glands, histamine 100 μM, ZnCl2 25-300 μM)	luminal pH ([3]; 100 μM histamine and 300 μM ZnCl2, 1 hour)	luminal pH compared with histamine alone (in words) ([3]; 100 μmol histamine and 300 μmol ZnCl2)	histamine induced proton extrusion rate after oral ZnCl2 ([4]; 0.05 mg/kg/d ZnCl2 in drinking water for 5 days)	histamine induced proton extrusion rate after oral ZnCl2 ([4]; 150 mg/kg/d ZnCl2 in drinking water for 5 days)	effect on histamine stimulated proton efflux (in words) (H+,K+-ATPase [5]; histamine 100 μM, ZnCl2 300 μM)	recovery rate (proton extrusion) of histamine stimulated parietal cells ([4]; control group with histamine alone, no ZnCl2)	F1 gland alkalinization rate (fundic H+,K+-ATPase; 100 μM secretagogue alone)	proton efflux under histamine stimulation (in words) (H+,K+-ATPase [5]; histamine alone)
Cc1cccc(C)c1CNc1cc(C(=O)NCCO)cn2c(C)c(C)nc12 [AZD0865]	does not completely inhibit proton extrusion	effectively inhibits acid secretion												
[Cl-].[Cl-].[Zn+2] [ZnCl2, zinc chloride]			98%	a few seconds	increase of the intracellular pH continued; also recorded: returns to normal levels	blocked; also recorded: dose dependent manner	4.54±0.065	higher pH	0.034±0.0036 ΔpH/min	0.022±0.0045 ΔpH/min	blocked; also recorded: abolished			
NCCc1c[nH]cn1 [histamine]	no effect											0.051±0.004 ΔpH/min	0.042±0.007 ΔpHi/min and 0.040±0.0079 ΔpHi/min	robust proton efflux
